This passage reports IC50 results from US9023767B2, “γ-Secretase substrates and methods of use” (Memorial Sloan-Kettering Cancer Center, priority 2009, dated 2015).

The target in test [1] is T1, γ-secretase (Homo sapiens (Human), UniProt P49768). The test can be described thus: HTRF γ-secretase assay with Sb4 substrate. It is filed as biochemical. From the text:
We set out to transfer the assay conditions obtained with the ECL method to an HTRF detection based format (FIG. 10b). The HTRF detection mixture consisted of mouse G2-10 antibody for recognition of the C-terminal epitope of the cleaved product, a Europium-labeled anti-mouse antibody (commonly, an antibody is conjugated with a cryptate ligand that forms a three dimensional coordination cage structure surrounding a lanthanide such as Eu^3+), along with Streptavidin conjugated to a trimeric form of the fluorescent protein allophycocyanin referred to as XL665. Cleavage of Sb4 substrate allows G2-10 mouse antibody to bind to the Aβ40-processed site on the cleaved substrate. The Steptavidin-XL665 conjugate binds directly with the biotin moiety on the N-terminal end of the Sb4 derived product. The anti-mouse Europium antibody targets to the G2-10 antibody, bringing all of these entities into close proximity. The Europium and XL665 reagents are a compatible pair of donor-acceptor fluorophores, and excitation of Europium at 337 nm results in fluorescence energy resonance transfer (FRET) to XL665 which fluoresces at 665 nm (FIG. 10b).
Human γ-secretase was prepared from HeLa cell membranes as described previously (Li et al., 2000). Briefly, HeLa cell pellet was resuspended in 1×MES buffer (50 mM MES, pH 6.0, 150 mM KCl, 5 mM CaCl2, 5 mM MgCl2) and treated with ‘complete’ protease inhibitor (Boehringer Mannheim). The resuspended pellet was mechanically homogenized by passing the cells through the French Press (Spectronic Instruments), and subsequently spun down at 800 g to remove cell debris and nuclei. Next, the supernatants were spun at 100,000 g in order to pellet the membranes. The pelleted membranes were resuspended in 1×MES buffer to approximately 12 mg/ml. This entire procedure was performed at 4° C. HeLa membranes were solubilized using 1% CHAPSO detergent in 1×MES buffer with protease inhibitors. After incubating for 1 hr at 4° C., the membrane was spun down at 100,000 g and the supernatants were collected and stored at −70° C. The collected fraction is defined as solubilized γ-secretase.
HTRF conditions were initially optimized in a 384-well format using a final volume of 20 μl. The high control for this assay was defined as the observed γ-secretase activity in the presence of 1% DMSO (v/v) and the low control as the activity observed when including 100 nM final concentration of Compound E (v/v). First, we determined a tolerable DMSO concentration that would not interfere with γ-secretase activity. Even with 3% DMSO (v/v) present in the assay mixture, there was virtually no effect on the γ-secretase activity (FIG. 11a), which was critical as delivery of library screening compounds required a final concentration of 2% DMSO (v/v) in the γ-secretase reaction. Next, we titrated the HTRF mixture components in an effort to minimize reagent costs for use in high throughput screening. […] Additionally, we varied Europium conjugated anti-mouse antibody and determined that 1 nM of this reagent in the HTRF mixture was sufficient for our assay conditions even though the signal continued to increase with higher concentrations of the anti-mouse antibody (FIG. 11c).
We have further miniaturized the HTRF assay from the established 384-well format to a 1536-well platform enabling more efficient screening of large chemical libraries. […] Based on these optimization experiments, we set our final assay conditions at 0.3 nM G2-10, 1 nM anti-mouse antibody, 15 nM Streptavidin-XL665, and proceeded with the assay at 10 μl final volume (5 μl γ-secretase mix+5 μl HTRF mix) in the 1536-well format for screening.
The pilot assay was performed in duplicate on two separate days to account for any day-to-day variability. […]

The target in test [2] is T1, γ-secretase. The test can be described thus: Exo-cell γ-secretase assay, HeLa cells, Sb4 substrate. It is filed as cell-based. On the procedure: Therefore, HeLa cells were first incubated with Sb4 substrate, as well as CHAPSO detergent as depicted in FIG. 14c. Cells were seeded at their indicated concentration in 96-well plates and allowed to attach overnight. The next day, media was removed and cells were washed once with PBS. Fresh media was then added containing 0.25% CHAPSO detergent, Sb4 substrate to a final concentration of 1 μM, and 1% DMSO or γ-secretase inhibitor. This was incubated for 2.5 hours at 37° C. Media was removed and cell debris was pelleted from this media for 5 min. at 3,500 rpm. Supernatant was then added to ruthenylated G2-10* antibody that recognizes cleaved product, but not uncleaved substrate. This was incubated for an additional 2 hours at room temperature. Finally, magnetic streptavidin beads were added to a final concentration of 80 μg/ml and incubated for 30 min. at room temperature. Assay buffer was added to the samples and γ-secretase-mediated cleavage of substrate was monitored using electrochemiluminescence (ECL) (Li et al., 2000). (FIG. 14c).
The potency of two structurally different GSIs was assayed in four unique γ-secretase activity assays. IC50 values were determined from the dose response curves using a non-linear regression analysis in the Prism software. An in vitro assay was based on the one previously reported by Li et al. (2000), except we utilized Sb4 substrate that eliminated the need for biotinylated antibody. The cell-based activity assay used N2A mouse neuroblastoma cells stably over-expressing APP and a biotinylated 4G8 antibody that binds the C-terminus of the amyloid beta peptide. The exo-cell assay incubated HeLa cells simultaneously with GSI, Sb4 substrate as well as 0.25% CHAPSO detergent prior to detecting substrate cleavage. Finally, the extended exo-cell assay first incubated HeLa cells with GSI for 24 hrs. Subsequently, the cells were washed 1× in PBS and then incubated with Sb4 substrate and CHAPSO detergent. The assay was then carried out exactly as described for the original exo-cell method. All assays incorporate ruthenylated G2-10* antibody to detect 40-site cleavage of APP or recombinant Sb4 substrate and quantitated activity by measuring ECL. The latter assays were performed as previously described (Li et al., 2000). In the in vitro assay, recombinant Sb4 substrate was incubated for 2.5 hours at 37° C. in pH 7.0 PIPES buffer in the presence of 0.25% CHAPSO detergent and solubilized γ-secretase at a final concentration of 40 ng/ul. The detection of cleaved substrate was determined using ruthenylated G2-10* antibody. Since the Sb4 substrate is biotinylated additional 6E10 biotinylated antibody used in earlier assays is not required. In the cell-based assay, N2A mouse neuroblastoma cells that stably overexpress amyloid precursor protein were incubated with γ-secretase inhibitors in a final concentration of 1% DMSO for 24 hrs. Following incubation, the supernatant was removed from the cells and assayed for Aβ40, the cleaved APP product, using ruthenylated G2-10* antibody as well as biotinylated 4G8 antibody.

Regarding `CC(NC(=O)Cc1cc(F)cc(F)c1)C(=O)NC1N=C(c2ccccc2)c2ccccc2N(C)C1=O` (stereo not shown) [Compound E], the IC50 in test [1] came out at 1.1 nM; in test [2] (ECL detection, read-out: Exo-Cell (nM), IC50) it was 3.8 nM; in test [2] (IC50, exo-cell assay, HTRF detection), 5.4 nM; in test [2] (read-out: Exo-Cell (nM), IC50, ECL detection), 3.8 nM.
